Results on four molecules are retold here after patent US6949354B2, “Methods for screening compounds active on neurons” (Trophos, priority 1999, dated 2005).

In one test the test system is Rat motor neurons. As to the kind of experiment: Motor neuron survival on trophic factor withdrawal. Type of test: cell-based. As to conditions: cultured 3 days in Neurobasal medium without neurotrophic factors, 4-well plates; FIG. 1. Here is the method:
Spinal cords are dissected from day E14.5 sprague Dawley rat embryos (Camu et al., (1993) In: “Immunoselection Strategies for Neural Cell Culture”, Neuroprotocols: A companion to Methods in Neurosciences 2, 191-199). The dorsal part of the spinal cord is cut away, and the meninges removed. Each cord is cut into pieces using a scalpel and placed into 1 ml modified F10 medium (Ca2+, Mg2+-free, no glutamine or phenol red), with 0.025% trypsin, at 37° C. for 10 minutes. The fragments are transferred to 1 ml L15 containing 0.4% BSA and 0.1 mg/ml Dnase, and triturated using a blue (1 ml) tip. Cells are then spun through a BSA (4% w/v) cushion for 5 minutes at 480 g. The small cells are removed using a metrizamide (Serva) density gradient: 6.5% (w/v) metrizamide is placed under the cell suspension and centrifuged for 15 minutes at 860 g. The large motor neurons stay at the interface between the medium and the metrizamide, while the small cells (including non-neuronal cells) are pelleted. […]
Rat motor neurons were isolated and purified as described in example 1 and cultured for 3 days in Neurobasal medium without neurotrophic factors (i.e. trophic factor withdrawal) in 4-well plates in the presence or absence of the test molecule. […] Motor neurons were grown for 3 days in vitro, then domoic acid at various concentrations was added and the number of surviving motor neurons was counted after 26 hours. […]

In a further test the test system is motor neurons. Kind of test: Induction of motor neuron cell death by glutamate toxicity (domoic acid). Type of test: cell-based, rat. As to conditions: domoic acid at 10^-5 M, after 24 hours. Here is the method: Domoic acid at 10^−5M leads to loss of more than 50% of motor neurons after 24 hours (see is example), with even more dramatic effects after longer incubations.
Rat motor neurons were isolated and purified as described in example 1 and cultured for 3 days in Neurobasal medium without neurotrophic factors (i.e. trophic factor withdrawal) in 4-well plates in the presence or absence of the test molecule. The neurotrophic factor BDNF is used as a positive control for all experiments. […] Motor neurons were grown for 3 days in vitro, then domoic acid at various concentrations was added and the number of surviving motor neurons was counted after 26 hours.

The subject of another test is isolated neurons. As to the kind of experiment: Low-density isolated neuron cultures (384-well plate) under growth factor privation, individual cell count. Type of test: cell-based. Particulars: growth factor privation to induce apoptosis, exclusion threshold below 300 μm^2, untreated well 18 neurons, FIG. 3A. From the text:
FIG. 3 represents two 9 mm^2-wells of a microtitration plate (384 wells) containing low-density cultures of isolated neurons according to this invention. The cultures were subjected to growth factor privation to induce apoptosis, and treated or not with BDNF. […] The exclusion threshold is below 300 μm^2.

On to `CCCC(CCC)C(=O)[O-].[Na+]` [sodium valproate], for which the “survival of motor neurons on trophic factor withdrawal” value in the test with Rat motor neurons is “enhances survival of motor neurons”.

For (4-carboxyphenyloxyamino) butanoic acid, the “survival of motor neurons on trophic factor withdrawal” value with Rat motor neurons was “no effect on motor neuron survival”.

Take `C/C(=C/C=C/[C@@H](C)C(=O)O)[C@H]1CN[C@H](C(=O)O)[C@H]1CC(=O)O` [Domoic acid]: the “loss of motor neurons” value in the test with motor neurons was “more than 50%”.

B1: BDNF: neurotrophic factor used as a positive control (protein, UniProt P23560 19-247, looked up)
Neurotrophic factor BDNF …: APMKEANIRGQGGLAYPGVRTHGTLESVNGPKAGSRGLTSLADTFEHVIEELLDEDQKVRPNEENNKDADLYTSRVMLSSQVPLEPPLLFLLEEYKNYLDAANMSMRVRRHSDPARRGELSVCDSISEWVTAADKKTAVDMSGGTVTVLEKVPVSKGQLKQYFYETKCNPMGYTKEGCRGIDKRHWNSQCRTTQSYVRALTMDSKKRIGWRFIRIDTSCVCTLTIKRGR
With B1, the “neurons present per 9 mm^2 well” value with isolated neurons amounted to 73 neurons.
